Source: patent US8431593B2, “Heteroaryl amide derivatives” (H. Lundbeck A/S, priority 2006, dated 2013)
Where two headings read alike, the source gives them in different places. Each block holds one compound with its values, some of them ahead of it.

Molecular target: T1, P2X7 receptor (Homo sapiens, UniProt Q99572)
T1 construct: host or cells: SH-SY5Y
T1 sequence (Q99572 1-595): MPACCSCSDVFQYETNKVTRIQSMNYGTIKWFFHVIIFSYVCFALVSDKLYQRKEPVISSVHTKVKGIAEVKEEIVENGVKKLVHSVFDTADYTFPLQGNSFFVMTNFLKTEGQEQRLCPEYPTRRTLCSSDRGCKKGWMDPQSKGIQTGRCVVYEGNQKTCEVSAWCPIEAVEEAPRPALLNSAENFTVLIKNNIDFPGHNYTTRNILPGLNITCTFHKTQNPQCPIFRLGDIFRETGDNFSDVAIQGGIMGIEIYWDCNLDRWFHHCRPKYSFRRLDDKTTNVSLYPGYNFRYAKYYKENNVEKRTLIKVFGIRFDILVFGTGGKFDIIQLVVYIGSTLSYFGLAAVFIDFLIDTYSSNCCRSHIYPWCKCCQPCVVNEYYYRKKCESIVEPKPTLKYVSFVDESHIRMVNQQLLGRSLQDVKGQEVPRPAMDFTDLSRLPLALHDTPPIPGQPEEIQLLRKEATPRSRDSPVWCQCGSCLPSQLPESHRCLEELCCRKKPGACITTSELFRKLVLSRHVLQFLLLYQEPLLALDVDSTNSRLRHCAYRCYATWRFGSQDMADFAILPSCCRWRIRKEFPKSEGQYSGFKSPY
Assay: P2X7 calcium mobilization assay, high throughput, antagonist activity (Example 4A)
Assay type: cell-based
Conditions: read-out: IC50
Description: One day prior to the experiment, cells are plated at a density of 100,000 cells/well in a 96 well black/clear TC plate (Corning® Costar®, Sigma-Aldrich Co., St. Louis, Mo.). […] After one hour dye incubation, wells are rinsed once with 50 μL assay solution, and are then incubated for an hour at room temperature with 100 μL assay solution containing the test compound. […] After the one hour incubation, plates are transferred to a FLIPR^TETRA instrument (Molecular Devices, Sunnyvale, Calif.) for calcium mobilization analysis.
First, the average maximum relative fluorescent unit (RFU) response from the negative control wells (no agonist) is subtracted from the maximum response detected for each of the other experimental wells. Second, average maximum RFU response is calculated for the positive control wells (agonist wells).

[1] = 50% decrease in the fluorescence response of cells exposed to 80 μM of 2′(3′)-O-(4-benzoyl-benzoyl)adenosine 5′-triphosphate, determined as in Example 4A
[2] = SH-SY5Y cells, 50% decrease in fluorescence response to 80 μM BzATP
[3] = 50% decrease in the fluorescence response of cells exposed to 80 μM 2′(3′)-O-(4-benzoyl-benzoyl)adenosine 5′-triphosphate, Example 4A
[4] = fluorescence response of cells exposed to 80 μM 2′(3′)-O-(4-benzoyl-benzoyl)adenosine 5′-triphosphate, Example 4A
[5] = 50% decrease in the fluorescence response of cells exposed to 80 μM of 2′(3′)-O-(4-benzoyl-benzoyl)adenosine 5′-triphosphate, Example 4A

- IC50 [1]: < 2 µM
SMILES: Cc1ccc(C2(CNC(=O)c3cccc4nc(CC(=O)N5CCC[C@@H](N)C5)cn34)CCCCC2)cn1 [Compound 948, 2-{2-[(3R)-3-amino-piperidin-1-yl]-2-oxoethyl}-N-{[1-(6-methylpyridin-3-yl)cyclohexyl]methyl} imidazo[1,2-a] pyridine-5-carboxamide]

- IC50 [1]: < 2 µM
SMILES: NC(=O)COc1cccc(NC(=O)Cc2cn3c(C(=O)NCC4CCCCCC4)cccc3n2)c1 [Compound 958, 2-(2-{[3-(2-amino-2-oxoethoxy)phenyl]amino}-2-oxoethyl)-N-(cycloheptylmethyl) imidazo[1,2-a] pyridine-5-carboxamide]

- IC50 [1]: < 2 µM
SMILES: O=C(NCC12CC3CC(CC(C3)C1)C2)c1cccc2nc(C3(C(=O)O)CCCCC3)cn12 [Compound 851, 1-{5-[(adamantan-1-ylmethyl)carbamoyl]imidazo [1,2-a]pyridin-2-yl} cyclohexane-carboxylic acid]

- IC50 [5]: < 2 µM
SMILES: CN(C)C(=O)CC(C(=O)O)c1cn2c(C(=O)NCC34CC5CC(CC(C5)C3)C4)cccc2n1 (stereo not drawn) [Compound 812, 2-{5-[(adamantan-1-ylmethyl)carbamoyl]imidazo[1,2-a]pyridin-2-yl}-4-(dimethylamino)-4-oxobutanoic acid]

- IC50 [5]: < 2 µM
SMILES: NC[C@@H]1CCCN1C(=O)c1cn2c(C(=O)NCC34CC5CC(CC(C5)C3)C4)cccc2n1 [Compound 628, N-(adamantan-1-ylmethyl)-2-{[(2S)-2-(aminomethyl)pyrrolidin-1-yl]carbonyl}imidazo[1,2-a]pyridine-5-carboxamide]

- IC50 [1]: < 2 µM
SMILES: CCC(C)NC(=O)Cc1cn2c(C(=O)NCC3(c4ccc(C(F)(F)F)cc4)CCCCC3)cccc2n1 (stereo not drawn) [Compound 868, 2-[2-(sec-butylamino)-2-oxoethyl]-N-({1-[4-(trifluoromethyl)phenyl]cyclohexyl}methyl) imidazo[1,2-a] pyridine-5-carboxamide]

- IC50 [5]: < 2 µM
SMILES: CCOC(=O)C(Cc1ccc(Cl)cc1)c1cn2c(C(=O)NCC34CC5CC(CC(C5)C3)C4)cccc2n1 (stereo not drawn) [Compound 800, ethyl 2-{5-[(adamantan-1-ylmethyl)carbamoyl]imidazo[1,2-a]pyridin-2-yl}-3-(4-chlorophenyl) propanoate]

- IC50 [5]: < 2 µM
SMILES: CCOC(=O)C(CC(=O)N1CCOCC1)c1cn2c(C(=O)NCC34CC5CC(CC(C5)C3)C4)cccc2n1 (stereo not drawn) [Compound 802, ethyl 2-{5-[(adamantan-1-ylmethyl)carbamoyl]imidazo[1,2-a]pyridin-2-yl}-4-morpholin-4-yl-4-oxobutanoate]

- IC50 [5]: < 2 µM
SMILES: CN1CCN(C)C(CN(C)C(=O)c2cn3c(C(=O)NCC45CC6CC(CC(C6)C4)C5)cccc3n2)C1 (stereo not drawn) [Compound 706, 5-N-(adamantan-1-ylmethyl)-2-N-[(l,4-dimethylpiperazin-2-yl)methyl]-2-N-methylimidazo[1,2-a]pyridine-2,5-dicarboxamide]

- IC50 [1]: < 2 µM
SMILES: Cc1ccc(C(CNC(=O)c2cccc3nc(CC(Cc4ccccc4)C(=O)O)cn23)CC(C)C)cc1 (stereo not drawn) [Compound 1005, 2-benzyl-3-(5-{[4-methyl-2-(4-methylphenyl)pentyl]carbamoyl}imidazo[1,2-a]pyridin-2-yl)propanoic acid]

- IC50 [1]: < 2 µM
SMILES: O=C(NCC12CC3CC(CC(C3)C1)C2)c1cccc2nc([C@H]3CCCC[C@H]3C(=O)O)cn12 (relative stereo) [Compound 995, rel-(1R,2S)-2-{5-[(adamantan-1-ylmethyl)carbamoyl]imidazo[1,2-a]pyridin-2-yl} cyclohexane-carboxylic acid]

- IC50 [1]: < 2 µM
SMILES: O=C(NCC1(c2ccc(Cl)cc2)CCCCC1)c1cccc2nc(C(CC3CC3)C(=O)O)cn12 (stereo not drawn) [Compound 1010, 2-[5-({[1-(4-chlorophenyl)cyclohexyl]methyl}carbamoyl)imidazo[1,2-a]pyridin-2-yl]-3-cyclopropylpropanoic acid]

- IC50 [5]: < 2 µM
SMILES: CN(C)C1CCN(C(=O)c2cn3c(C(=O)NCC45CC6CC(CC(C6)C4)C5)cccc3n2)CC1 [Compound 669, N-(adamantan-1-ylmethyl)-2-{[4-(dimethylamino)piperidin-1-yl]carbonyl}imidazo[1,2-a]pyridine-5-carboxamide]

- IC50 [1]: < 2 µM
SMILES: O=C(Cc1cn2c(C(=O)NCC3(c4cccnc4)CCCCC3)cccc2n1)NC1CCCC1 [Compound 865, 2-[2-(cyclopentylamino)-2-oxoethyl]-N-[(1-pyridin-3-ylcyclohexyl)methyl] imidazo[1,2-a] pyridine-5-carboxamide]

Further lines, the compound ahead of its results:

SMILES: CN1CCC(N(C)C(=O)Cc2cn3c(C(=O)NCC45CC6CC(CC(C6)C4)C5)cccc3n2)C1 (stereo not drawn) [Compound 39, N-(adamantan-1-ylmethyl)-2-{2-[methyl(1-methylpyrrolidin-3-yl)amino]-2-oxoethyl}imidazo[1,2-a]pyridine-5-carboxamide]
- IC50 [2]: < 2 µM

SMILES: Cc1cc(-c2cn3c(C(=O)NCC(CC(C)C)c4cccnc4)cccc3n2)n[nH]1 (stereo not drawn) [Compound 595, 2-(5-methyl-1H-pyrazol-3-yl)-N-(4-methyl-2-pyridin-3-ylpentyl)imidazo[1,2-a]pyridine-5-carboxamide]
- IC50 [3]: < 2 µM

SMILES: CNCC(=O)NCCc1cn2c(C(=O)NCC34CC5CC(CC(C5)C3)C4)cccc2n1 [Compound 270, N-(adamantan-1-ylmethyl)-2-{2-[(N-methylglycyl)amino]ethyl}imidazo[1,2-a] pyridine-5-carboxamide]
- IC50 [4]: < 2 µM

SMILES: O=C(NCC12CC3CC(CC(C3)C1)C2)c1cccc2nc(CC(=O)N3CC[C@@H](O)C3)cn12 [Compound 531, N-(adamantan-1-ylmethyl)-2-{2-[(3R)-3-hydroxypyrrolidin-1-yl]-2-oxoethyl}imidazo[1,2-a]pyridine-5-carboxamide]
- IC50 [3]: < 2 µM

SMILES: CC(C)CNC(=O)c1cn2c(C(=O)NCC34CC5CC(CC(C5)C3)C4)cccc2n1 [Compound 73, 5-N-(adamantan-1-ylmethyl)-- isobutylimidazo[1,2-a]pyridine-2,5-dicarboxamide]
- IC50 [2]: < 2 µM

SMILES: CN(CC(C)(C)O)C(=O)Cc1cn2c(C(=O)NCC34CC5CC(CC(C5)C3)C4)cccc2n1 [Compound 57, N-(adamantan-1-ylmethyl)-2-{2-[(2-hydroxy-2-methyl-propyl)(meth-yl)amino]-2-oxoethyl}imidazo[1,2-a]pyridine-5-carboxamide]
- IC50 [2]: < 2 µM

SMILES: NC(=O)[C@H]1CCC[C@H]1NC(=O)Cc1cn2c(C(=O)NCC34CC5CC(CC(C5)C3)C4)cccc2n1 [Compound 161, N-(adamantan-1-ylmethyl)-2-(2-{[(1R,2S)-2-carbamoylcyclo-pentyl]amino}-2-oxoethyl)imidazo[1,2-a]pyridine-5-carboxamide]
- IC50 [2]: < 2 µM

SMILES: NC(=O)C1CCCN(C(=O)Cc2cn3c(C(=O)NCC45CC6CC(CC(C6)C4)C5)cccc3n2)C1 (stereo not drawn) [Compound 50, N-(adamantan-1-ylmethyl)-2-[2-(3-carbamoylpiperidin-1-yl)-2-oxoethyl]imidazo[1,2-a]pyridine-5-carboxamide]
- IC50 [2]: < 2 µM

SMILES: CC1(C)[C@@H]2CC[C@@H](CNC(=O)c3cccc4nc(CC(=O)N5CCCC(CN)C5)cn34)[C@H]1C2 (stereo partly drawn) [Compound 578, 2-{2-[3-(aminomethyl)piperidin-1-yl]-2-oxoethyl}-N-{[(1R,2R,5R)-6,6-dimethylbicyclo[3.1.1]hept-2-yl]methyl}imidazo[1,2-a]pyridine-5-carboxamide]
- IC50 [3]: < 2 µM

SMILES: CC(C)[C@@H]1CN(C(=O)c2cn3c(C(=O)NCC45CC6CC(CC(C6)C4)C5)cccc3n2)CCN1 [Compound 614, N-(adamantan-1-ylmethyl)-2-{[(3R)-3-isopropylpiperazin-1-yl]carbonyl}imidazo[1,2-a]pyridine-5-carboxamide]
- IC50 [3]: < 2 µM

SMILES: CCN(CC)C(=O)c1cn2c(C(=O)NC[C@@H]3CC[C@H]4C[C@@H]3C4(C)C)cccc2n1 [Compound 477, 5-N-{[(1S,2R,5S)-6,6-dimethylbicyclo[3.1.1]hept-2-yl]methyl}-2-N,2-N-diethylimidazo[1,2-a]pyridine-2,5-dicarboxamide]
- IC50 [3]: < 2 µM

SMILES: O=C(NCCC1CC2CCC1C2)c1cccc2nc(CN3CCOCC3)cn12 (stereo not drawn) [Compound 344, N-(2-bicyclo[2.2.1]hept-2-ylethyl)-2-(morpholin-4-ylmethyl)imidazo[1,2-a]pyridine-5-carboxamide]
- IC50 [4]: < 2 µM

SMILES: O=C(CC12CC3CC(CC(C3)C1)C2)Nc1cccc2nc(C(=O)N3CCC(F)CC3)cn12 [Compound 387, 2-adamantan-1-yl-N-{2-[(4-fluoropiperidin-1-yl)carbonyl]imidazo[1,2-a]pyridin-5-yl}acetamide]
- IC50 [4]: < 2 µM
